Data published in ChEMBL document CHEMBL3885861, “Open TG-GATES”.

Species: Rattus norvegicus
Test: Open TG-GATES - Regimen: Single
Type: toxicity, organism-based, Sprague-Dawley
Design: regimen Single, gender Male, age 6 weeks
Conditions: in vivo, po, 2000 mg/kg, route gavage, dose level High; for APTT / Bas / Eos / Fbg / Hb / Ht / Lym / MCH / MCHC / MCV / Mono / Neu / PT / Plat / RBC / Ret / WBC: tissue Blood; for KIDNEY_L / KIDNEY_R / KIDNEY_TOTAL: tissue Kidney; for LIVER: tissue Liver; for A/G / ALP / ALT / AST / BUN / CRE / Ca / Cl / DBIL / GLC / IP / K / LDH / Na / PL / RALB / TBIL / TC / TG / TP / gamma-GTP: tissue Plasma

## NNC(=O)c1ccncc1 [ISONIAZID]
3 h
  TERMINAL_BW: 221 g
  APTT: 20.8 s
  Bas: 0%
  Eos: 1.2%
  Fbg: 218.2 mg/dL
  Hb: 13.8 g/dL
  Ht: 38.4%
  Lym: 73.8%
  MCH: 22.2 pg
  MCHC: 36%
  MCV: 61.7 fL
  Mono: 2%
  Neu: 22.2%
  PT: 12.3 s
  Plat: 117.2 x10_4/uL
  RBC: 621.8 x10_4/ul
  Ret: 7.9%
  WBC: 51.3 x10_2/uL
  KIDNEY_L: 1 g
  KIDNEY_R: 1 g
  KIDNEY_TOTAL: 1.9 g
  LIVER: 9.8 g
  A/G: 1.7
  ALP: 760.4 IU/L
  ALT: 31.4 IU/L
  AST: 66.4 IU/L
  BUN: 8.8 mg/dL
  CRE: 0.4 mg/dL
  Ca: 10.4 mg/dL
  Cl: 102.4 meq/L
  DBIL: 0.062 mg/dL
  GLC: 221.8 mg/dL
  IP: 10.2 mg/dL
  K: 4 meq/L
  LDH: 231.8 IU/L
  Na: 141.2 meq/L
  PL: 136 mg/dL
  RALB: 3.6 g/dL
  TBIL: 0.1 mg/dL
  TC: 72.8 mg/dL
  TG: 58.8 mg/dL
  TP: 5.7 g/dL
  gamma-GTP: 0.8 IU/L
6 h
  TERMINAL_BW: 217.4 g
  APTT: 19.1 s
  Bas: 0%
  Eos: 0.8%
  Fbg: 231 mg/dL
  Hb: 13.7 g/dL
  Ht: 38.1%
  Lym: 68.4%
  MCH: 22 pg
  MCHC: 36%
  MCV: 61 fL
  Mono: 1.6%
  Neu: 28.2%
  PT: 12.2 s
  Plat: 128.8 x10_4/uL
  RBC: 625.4 x10_4/ul
  Ret: 8.1%
  WBC: 60.7 x10_2/uL
  KIDNEY_L: 1 g
  KIDNEY_R: 1 g
  KIDNEY_TOTAL: 1.9 g
  LIVER: 9.6 g
  A/G: 1.5
  ALP: 774.2 IU/L
  ALT: 27.8 IU/L
  AST: 43.8 IU/L
  BUN: 8.8 mg/dL
  CRE: 0.5 mg/dL
  Ca: 10.4 mg/dL
  Cl: 104.2 meq/L
  DBIL: 0.062 mg/dL
  GLC: 222.4 mg/dL
  IP: 9.2 mg/dL
  K: 3.7 meq/L
  LDH: 185.6 IU/L
  Na: 141.8 meq/L
  PL: 151.2 mg/dL
  RALB: 3.5 g/dL
  TBIL: 0.1 mg/dL
  TC: 78.2 mg/dL
  TG: 47.8 mg/dL
  TP: 5.9 g/dL
  gamma-GTP: 1 IU/L
9 h
  TERMINAL_BW: 217 g
  APTT: 18.6 s
  Bas: 0.2%
  Eos: 1%
  Fbg: 230 mg/dL
  Hb: 14 g/dL
  Ht: 38.5%
  Lym: 70.4%
  MCH: 21.7 pg
  MCHC: 36.3%
  MCV: 59.8 fL
  Mono: 1.8%
  Neu: 26%
  PT: 12.5 s
  Plat: 131.2 x10_4/uL
  RBC: 644 x10_4/ul
  Ret: 7%
  WBC: 61.3 x10_2/uL
  KIDNEY_L: 1 g
  KIDNEY_R: 1 g
  KIDNEY_TOTAL: 2.1 g
  LIVER: 9 g
  A/G: 1.7
  ALP: 823.6 IU/L
  ALT: 23.8 IU/L
  AST: 40.8 IU/L
  BUN: 8.8 mg/dL
  CRE: 0.4 mg/dL
  Ca: 10.5 mg/dL
  Cl: 104 meq/L
  DBIL: 0.066 mg/dL
  GLC: 211 mg/dL
  IP: 9.2 mg/dL
  K: 3.6 meq/L
  LDH: 195.4 IU/L
  Na: 142.4 meq/L
  PL: 151.8 mg/dL
  RALB: 3.7 g/dL
  TBIL: 0.1 mg/dL
  TC: 76.2 mg/dL
  TG: 78 mg/dL
  TP: 5.9 g/dL
  gamma-GTP: 1 IU/L
24 h
  TERMINAL_BW: 212.5 g
  APTT: 18.8 s
  Bas: 0.2%
  Eos: 0.8%
  Fbg: 196 mg/dL
  Hb: 14.7 g/dL
  Ht: 40.4%
  Lym: 75.4%
  MCH: 22.4 pg
  MCHC: 36.4%
  MCV: 61.6 fL
  Mono: 3.4%
  Neu: 19.6%
  PT: 14.4 s
  Plat: 152.8 x10_4/uL
  RBC: 656.4 x10_4/ul
  Ret: 2.8%
  WBC: 41.4 x10_2/uL
  KIDNEY_L: 1.1 g
  KIDNEY_R: 1.1 g
  KIDNEY_TOTAL: 2.2 g
  LIVER: 9.5 g
  A/G: 1.8
  ALP: 761.4 IU/L
  ALT: 12 IU/L
  AST: 25.8 IU/L
  BUN: 14 mg/dL
  CRE: 0.5 mg/dL
  Ca: 10.1 mg/dL
  Cl: 103.8 meq/L
  DBIL: 0.06 mg/dL
  GLC: 205.4 mg/dL
  IP: 8.4 mg/dL
  K: 3.9 meq/L
  LDH: 203.8 IU/L
  Na: 143 meq/L
  PL: 114.2 mg/dL
  RALB: 3.5 g/dL
  TBIL: 0.1 mg/dL
  TC: 47 mg/dL
  TG: 90 mg/dL
  TP: 5.5 g/dL
  gamma-GTP: 0.8 IU/L
